Laboratory results from paper PMC5218480 (PLoS ONE, 2017).

Tested on: MV-4-11 cells
Experiment: Gene expression microarray analysis (Affymetrix PrimeView) and GSEA
Type: cell-based, human
Parameters: RFU PODN (11730768_x_at) / Fold change /veh PODN (11730768_x_at) / RFU LINC00158 (11744669_a_at) / Fold change /veh LINC00158 (11744669_a_at) / RFU DUSP10 (11751237_a_at) / Fold change /veh DUSP10 (11751237_a_at) / RFU ID3 (11757404_x_at) / Fold change /veh ID3 (11757404_x_at) / RFU PLEKHG5 (11737974_s_at) / Fold change /veh PLEKHG5 (11737974_s_at) / RFU LRRC4B (11730491_at) / Fold change /veh LRRC4B (11730491_at) / RFU GIMAP4 (11747438_a_at) / Fold change /veh GIMAP4 (11747438_a_at) / RFU KRT8 (11758183_x_at) / Fold change /veh KRT8 (11758183_x_at) / RFU CNN1 (11734310_a_at) / Fold change /veh CNN1 (11734310_a_at) / RFU VPS37D (11726825_at) / Fold change /veh VPS37D (11726825_at) / RFU C10orf10 (11716522_x_at) / Fold change /veh C10orf10 (11716522_x_at) / RFU KIR2DL2 /// KIR2DL4 /// KIR2DL5A /// KIR2DL5B /// KIR2DS1 /// KIR2DS2 /// KIR2DS3 /// KIR2DS4 /// KIR3DL3 /// KIR3DL3 /// KIR3DS1 (11738374_at) / Fold change /veh KIR2DL2 /// KIR2DL4 /// KIR2DL5A /// KIR2DL5B /// KIR2DS1 /// KIR2DS2 /// KIR2DS3 /// KIR2DS4 /// KIR3DL3 /// KIR3DL3 /// KIR3DS1 (11738374_at) / RFU C1QL1 (11718748_at) / Fold change /veh C1QL1 (11718748_at) / RFU TMPRSS4 (11747572_a_at) / Fold change /veh TMPRSS4 (11747572_a_at) / RFU HAMP (11756126_x_at) / Fold change /veh HAMP (11756126_x_at) / RFU RNFT2 (11725882_a_at) / Fold change /veh RNFT2 (11725882_a_at) / RFU NR4A2 (11747474_a_at) / Fold change /veh NR4A2 (11747474_a_at) / RFU ABCC12 (11746883_a_at) / Fold change /veh ABCC12 (11746883_a_at) / RFU TMEM136 (11760407_x_at) / Fold change /veh TMEM136 (11760407_x_at) / RFU CLDN22 /// WWC2 (11732394_at) / Fold change /veh CLDN22 /// WWC2 (11732394_at) / RFU HLA-DPB1 (11760878_x_at) / Fold change /veh HLA-DPB1 (11760878_x_at) / RFU SPINT1 (11716480_a_at) / Fold change /veh SPINT1 (11716480_a_at) / RFU GAP43 (11754022_s_at) / Fold change /veh GAP43 (11754022_s_at) / RFU A4GNT (11735810_at) / Fold change /veh A4GNT (11735810_at) / RFU PRB3 (11715151_x_at) / Fold change /veh PRB3 (11715151_x_at) / RFU TUBB4B (11761932_at) / Fold change /veh TUBB4B (11761932_at) / RFU CAPN14 (11732068_a_at) / Fold change /veh CAPN14 (11732068_a_at) / RFU TMCC2 (11721928_a_at) / Fold change /veh TMCC2 (11721928_a_at) / RFU IRGQ (11745062_a_at) / Fold change /veh IRGQ (11745062_a_at) / RFU FAM174B (11720279_a_at) / Fold change /veh FAM174B (11720279_a_at) / RFU TMPRSS4 (11748680_a_at) / Fold change /veh TMPRSS4 (11748680_a_at) / RFU FAM212B (11763350_a_at) / Fold change /veh FAM212B (11763350_a_at) / RFU PLEKHG5 (11743358_a_at) / Fold change /veh PLEKHG5 (11743358_a_at) / RFU ZSCAN30 (11745921_a_at) / Fold change /veh ZSCAN30 (11745921_a_at) / RFU CMKLR1 (11741424_a_at) / Fold change /veh CMKLR1 (11741424_a_at) / RFU LOC101060620 /// MAPK8IP1 (11723275_at) / Fold change /veh LOC101060620 /// MAPK8IP1 (11723275_at) / RFU SPTSSB (11747773_x_at) / Fold change /veh SPTSSB (11747773_x_at) / RFU PRSS12 (11739890_at) / Fold change /veh PRSS12 (11739890_at) / RFU BIN1 (11741810_x_at) / Fold change /veh BIN1 (11741810_x_at) / RFU WNT11 (11732464_a_at) / Fold change /veh WNT11 (11732464_a_at) / RFU C10orf10 (11716521_a_at) / Fold change /veh C10orf10 (11716521_a_at) / RFU C5orf56 (11738089_at) / Fold change /veh C5orf56 (11738089_at) / RFU CYB561 (11721691_x_at) / Fold change /veh CYB561 (11721691_x_at) / RFU ANKRD19P (11752326_a_at) / Fold change /veh ANKRD19P (11752326_a_at) / RFU OR2T12 /// OR2T33 /// OR2T8 (11738714_s_at) / Fold change /veh OR2T12 /// OR2T33 /// OR2T8 (11738714_s_at) / RFU VCAN (11748164_a_at) / Fold change /veh VCAN (11748164_a_at) / RFU JSRP1 (11732532_at) / Fold change /veh JSRP1 (11732532_at) / RFU KRTAP10-11 (11738290_x_at) / Fold change /veh KRTAP10-11 (11738290_x_at) / RFU MYO3A (11730013_a_at) / Fold change /veh MYO3A (11730013_a_at) / RFU EBF3 (11725865_a_at) / Fold change /veh EBF3 (11725865_a_at) / RFU CAMK2N1 (11719241_x_at) / Fold change /veh CAMK2N1 (11719241_x_at) / RFU C5orf56 (11738088_a_at) / Fold change /veh C5orf56 (11738088_a_at) / RFU OLFML3 (11715873_a_at) / Fold change /veh OLFML3 (11715873_a_at) / RFU LOC100653217 /// NTM (11731650_a_at) / Fold change /veh LOC100653217 /// NTM (11731650_a_at) / RFU MAPK11 (11762145_a_at) / Fold change /veh MAPK11 (11762145_a_at) / RFU FIZ1 (11724087_x_at) / Fold change /veh FIZ1 (11724087_x_at) / RFU OASL (11726364_x_at) / Fold change /veh OASL (11726364_x_at) / RFU SOX15 (11748057_x_at) / Fold change /veh SOX15 (11748057_x_at) / RFU CD79A (11719716_a_at) / Fold change /veh CD79A (11719716_a_at) / RFU HIST1H1D (11736915_at) / Fold change /veh HIST1H1D (11736915_at) / RFU CASKIN2 (11723855_a_at) / Fold change /veh CASKIN2 (11723855_a_at) / RFU LOC730098 (11760151_x_at) / Fold change /veh LOC730098 (11760151_x_at) / RFU OR4N2 (11742367_at) / Fold change /veh OR4N2 (11742367_at) / RFU PRRT2 (11749266_a_at) / Fold change /veh PRRT2 (11749266_a_at) / RFU SNX32 (11753110_a_at) / Fold change /veh SNX32 (11753110_a_at) / RFU CDHR5 (11726645_a_at) / Fold change /veh CDHR5 (11726645_a_at) / RFU RCAN1 (11760418_a_at) / Fold change /veh RCAN1 (11760418_a_at) / RFU FAM167A (11723789_a_at) / Fold change /veh FAM167A (11723789_a_at) / RFU FAM26E (11764081_at) / Fold change /veh FAM26E (11764081_at) / RFU ISYNA1 (11749810_s_at) / Fold change /veh ISYNA1 (11749810_s_at) / RFU ACY1 (11761880_at) / Fold change /veh ACY1 (11761880_at) / RFU 11764098_at / Fold change /veh 11764098_at / RFU SAMD14 (11745864_x_at) / Fold change /veh SAMD14 (11745864_x_at) / RFU NPB (11741838_a_at) / Fold change /veh NPB (11741838_a_at) / RFU TMPRSS6 (11731388_a_at) / Fold change /veh TMPRSS6 (11731388_a_at) / RFU KRTAP10-2 (11738614_at) / Fold change /veh KRTAP10-2 (11738614_at) / RFU ARHGAP8 /// PRR5-ARHGAP8 (11727945_x_at) / Fold change /veh ARHGAP8 /// PRR5-ARHGAP8 (11727945_x_at) / RFU KRTAP5-7 /// NADSYN1 (11734609_at) / Fold change /veh KRTAP5-7 /// NADSYN1 (11734609_at) / RFU RASL12 (11751679_a_at) / Fold change /veh RASL12 (11751679_a_at) / RFU CDKN2B (11736163_a_at) / Fold change /veh CDKN2B (11736163_a_at) / RFU PRF1 (11729649_at) / Fold change /veh PRF1 (11729649_at) / RFU, ZNF638 /// ZNF638-IT1 / Fold change vs veh, ZNF638 /// ZNF638-IT1 / RFU, PANK3 / Fold change vs veh, PANK3 / RFU, SH3YL1 / Fold change vs veh, SH3YL1 / RFU, ZEB2 / Fold change vs veh, ZEB2 / RFU, NRIP1 / Fold change vs veh, NRIP1 / RFU, PTTG1IP / Fold change vs veh, PTTG1IP / RFU, CAPN2 / Fold change vs veh, CAPN2 / RFU, MED14 / Fold change vs veh, MED14 / RFU, SNORA58 / Fold change vs veh, SNORA58 / RFU, C1orf63 / Fold change vs veh, C1orf63 / RFU, LRRFIP1 / Fold change vs veh, LRRFIP1 / RFU, NDUFAF7 / Fold change vs veh, NDUFAF7 / RFU, SLC12A2 / Fold change vs veh, SLC12A2 / RFU, IBTK / Fold change vs veh, IBTK / RFU, ESF1 / Fold change vs veh, ESF1 / Fold change vs veh, TMEM50B / RFU, TAOK1 / Fold change vs veh, TAOK1 / RFU, ACBD3 / Fold change vs veh, ACBD3 / RFU, TMA16 / Fold change vs veh, TMA16 / RFU, RWDD3 / Fold change vs veh, RWDD3 / RFU, BCAT1 / Fold change vs veh, BCAT1 / RFU, EDEM3 / Fold change vs veh, EDEM3 / RFU, TMEM33 / Fold change vs veh, TMEM33 / RFU, WDR75 / Fold change vs veh, WDR75 / RFU, AHCTF1 / Fold change vs veh, AHCTF1 / RFU, TFRC / Fold change vs veh, TFRC / RFU, ZDHHC17 / Fold change vs veh, ZDHHC17 / RFU, NOM1 / Fold change vs veh, NOM1 / RFU, ARL8B / Fold change vs veh, ARL8B / RFU, ZBTB11 / Fold change vs veh, ZBTB11 / RFU, TAMM41 / Fold change vs veh, TAMM41 / RFU, KIAA1704 /// LOC100996395 / Fold change vs veh, KIAA1704 /// LOC100996395 / RFU, ING1 / Fold change vs veh, ING1 / RFU, TRMT61B / Fold change vs veh, TRMT61B / RFU, FUBP3 / Fold change vs veh, FUBP3 / RFU, TP53 / Fold change vs veh, TP53 / RFU, TNKS2 / Fold change vs veh, TNKS2 / RFU, ZFP14 / Fold change vs veh, ZFP14 / RFU, ACTR2 / Fold change vs veh, ACTR2 / RFU, PPP3R1 / Fold change vs veh, PPP3R1 / RFU, PIK3R1 / Fold change vs veh, PIK3R1 / RFU, HNRNPA1 / Fold change vs veh, HNRNPA1 / RFU, RNF170 / Fold change vs veh, RNF170 / RFU, ZNF28 / Fold change vs veh, ZNF28 / RFU, RNGTT / Fold change vs veh, RNGTT / RFU, OGT / Fold change vs veh, OGT / RFU, BRD1 / Fold change vs veh, BRD1 / RFU, MARS / Fold change vs veh, MARS / RFU, ZNF655 / Fold change vs veh, ZNF655 / RFU, FAHD1 / Fold change vs veh, FAHD1 / RFU, BDP1 / Fold change vs veh, BDP1 / RFU, LRRCC1 / Fold change vs veh, LRRCC1 / RFU, ARID1A / Fold change vs veh, ARID1A / RFU, ZNF146 / Fold change vs veh, ZNF146 / RFU, ZNF330 / Fold change vs veh, ZNF330 / RFU, GPN3 / Fold change vs veh, GPN3 / RFU, C9orf123 / Fold change vs veh, C9orf123 / RFU, N4BP2L2 / Fold change vs veh, N4BP2L2 / RFU, ARFIP1 / Fold change vs veh, ARFIP1 / RFU, FAM179B / Fold change vs veh, FAM179B / RFU, BCL10 / Fold change vs veh, BCL10 / RFU, UHRF1BP1L / Fold change vs veh, UHRF1BP1L / RFU, BET1 / Fold change vs veh, BET1 / RFU, CNOT2 / Fold change vs veh, CNOT2 / RFU, ZNF268 / Fold change vs veh, ZNF268 / Fold change vs veh, ZNF507 / RFU, DGCR2 / Fold change vs veh, DGCR2 / RFU, WDSUB1 / Fold change vs veh, WDSUB1 / Fold change vs veh, HSP90B1 /// MIR3652 / RFU, ADSS / Fold change vs veh, ADSS / RFU, GK / Fold change vs veh, GK / RFU, ZNF148 / Fold change vs veh, ZNF148 / RFU, TAF9 / Fold change vs veh, TAF9 / RFU, SLC1A5 / Fold change vs veh, SLC1A5 / RFU, SLMO2 / Fold change vs veh, SLMO2 / RFU, ABCC4 / Fold change vs veh, ABCC4 / RFU, LOC101060439 /// RAP1B / Fold change vs veh, LOC101060439 /// RAP1B / RFU, RFX7 / Fold change vs veh, RFX7 / RFU, GTPBP10 / Fold change vs veh, GTPBP10 / RFU, CNEP1R1 / Fold change vs veh, CNEP1R1 / RFU, BIVM-ERCC5 /// ERCC5 / Fold change vs veh, BIVM-ERCC5 /// ERCC5 / RFU, ILF3 / Fold change vs veh, ILF3 / RFU 11762660_at / Fold change /veh 11762660_at / RFU VCAN (11757783_s_at) / Fold change /veh VCAN (11757783_s_at) / RFU DDX43 (11728927_at) / Fold change /veh DDX43 (11728927_at) / RFU KRT8 (11758188_x_at) / Fold change /veh KRT8 (11758188_x_at) / RFU NKD1 (11759106_at) / Fold change /veh NKD1 (11759106_at) / RFU SRD5A1 (11742802_a_at) / Fold change /veh SRD5A1 (11742802_a_at) / RFU TPSAB1 /// TPSB2 (11721975_s_at) / Fold change /veh TPSAB1 /// TPSB2 (11721975_s_at) / RFU GSTM3 (11746129_a_at) / Fold change /veh GSTM3 (11746129_a_at) / RFU IL23R (11737362_x_at) / Fold change /veh IL23R (11737362_x_at) / RFU TMEM51 (11727254_a_at) / Fold change /veh TMEM51 (11727254_a_at) / RFU PIWIL2 (11732686_x_at) / Fold change /veh PIWIL2 (11732686_x_at) / RFU ORM1 (11744905_x_at) / Fold change /veh ORM1 (11744905_x_at) / RFU CCDC152 (11743942_at) / Fold change /veh CCDC152 (11743942_at) / RFU ECM1 (11717891_a_at) / Fold change /veh ECM1 (11717891_a_at) / RFU IL23R (11748794_a_at) / Fold change /veh IL23R (11748794_a_at) / RFU TNFAIP8L3 (11732012_x_at) / Fold change /veh TNFAIP8L3 (11732012_x_at) / RFU MBOAT4 (11741988_at) / Fold change /veh MBOAT4 (11741988_at) / RFU 11764193_at / Fold change /veh 11764193_at / RFU TMEM53 (11763286_at) / Fold change /veh TMEM53 (11763286_at) / RFU MAGEB2 (11727129_at) / Fold change /veh MAGEB2 (11727129_at) / RFU TMEM200A (11744735_a_at) / Fold change /veh TMEM200A (11744735_a_at) / RFU CCDC152 (11751479_a_at) / Fold change /veh CCDC152 (11751479_a_at) / RFU FAM211A (11726209_a_at) / Fold change /veh FAM211A (11726209_a_at) / RFU RGS16 (11746705_a_at) / Fold change /veh RGS16 (11746705_a_at) / RFU VCAN (11755009_s_at) / Fold change /veh VCAN (11755009_s_at) / RFU RHOB (11743442_s_at) / Fold change /veh RHOB (11743442_s_at) / RFU RGS16 (11720943_a_at) / Fold change /veh RGS16 (11720943_a_at) / RFU RGS16 (11720944_at) / Fold change /veh RGS16 (11720944_at) / RFU, VPS4B / Fold change vs veh, VPS4B / RFU, CREB1 / Fold change vs veh, CREB1 / RFU, DNAJC13 / Fold change vs veh, DNAJC13 / RFU, GNAQ / Fold change vs veh, GNAQ / RFU, CDK5R1 / Fold change vs veh, CDK5R1 / RFU, ZRANB3 / Fold change vs veh, ZRANB3 / RFU, CUL4A / Fold change vs veh, CUL4A / RFU, CCNY / Fold change vs veh, CCNY / RFU, UFL1 / Fold change vs veh, UFL1 / RFU, COG3 / Fold change vs veh, COG3 / RFU, DIAPH2 / Fold change vs veh, DIAPH2 / RFU, SKA2 / Fold change vs veh, SKA2 / RFU, AFF3 / Fold change vs veh, AFF3 / RFU, LMF1 / Fold change vs veh, LMF1 / RFU, IPO11 / Fold change vs veh, IPO11 / RFU, DFFB / Fold change vs veh, DFFB / RFU, FOXP1 / Fold change vs veh, FOXP1 / RFU, CARD8 / Fold change vs veh, CARD8 / RFU, STRN3 / Fold change vs veh, STRN3 / RFU, ADK / Fold change vs veh, ADK / RFU, RASSF2 / Fold change vs veh, RASSF2 / RFU, WIPF1 / Fold change vs veh, WIPF1 / RFU, LARP1B / Fold change vs veh, LARP1B / RFU, RASA1 / Fold change vs veh, RASA1 / RFU, RB1 / Fold change vs veh, RB1 / RFU, PPFIA1 / Fold change vs veh, PPFIA1 / RFU, MAT2A / Fold change vs veh, MAT2A / RFU, CCT5 / Fold change vs veh, CCT5 / RFU, WDR92 / Fold change vs veh, WDR92 / RFU, CUX1 / Fold change vs veh, CUX1 / RFU, TTC7A / Fold change vs veh, TTC7A / RFU, TMEM135 / Fold change vs veh, TMEM135 / RFU, DEPTOR / Fold change vs veh, DEPTOR / RFU, CPM / Fold change vs veh, CPM / RFU, DNAJB6 / Fold change vs veh, DNAJB6 / RFU, CACNA2D3 / Fold change vs veh, CACNA2D3 / RFU, DTX4 / Fold change vs veh, DTX4 / RFU, TFCP2 / Fold change vs veh, TFCP2 / RFU, GMCL1 /// GMCL1P1 / Fold change vs veh, GMCL1 /// GMCL1P1 / RFU, AEBP2 / Fold change vs veh, AEBP2 / RFU, SNHG1 /// SNORD22 /// SNORD25 /// SNORD26 /// SNORD27 /// SNORD28 /// SNORD29 /// SNORD31 / Fold change vs veh, SNHG1 /// SNORD22 /// SNORD25 /// SNORD26 /// SNORD27 /// SNORD28 /// SNORD29 /// SNORD31 / Fold change (Aza/veh), C12orf56 (ProbeSet 11735607_a_at) / Fold change (ACY-1035/veh), C12orf56 (ProbeSet 11735607_a_at) / Fold change (Aza/veh), FGFR1OP (ProbeSet 11751329_s_at) / Fold change (ACY-1035/veh), FGFR1OP (ProbeSet 11751329_s_at) / Fold change (Aza/veh), VPS36 (ProbeSet 11739960_a_at) / Fold change (ACY-1035/veh), VPS36 (ProbeSet 11739960_a_at) / RFU SYPL1 (11715823_x_at) / Fold change /veh SYPL1 (11715823_x_at) / RFU IGFBP7 (11715501_s_at) / Fold change /veh IGFBP7 (11715501_s_at) / RFU REEP3 (11722064_at) / Fold change /veh REEP3 (11722064_at) / RFU IGLL1 (11728026_x_at) / Fold change /veh IGLL1 (11728026_x_at): dose or concentration left out as unconfirmed
Conditions: MV-4-11 cells, 48 hours

Structure (SMILES): Nc1ccc(-c2cccs2)cc1NC(=O)c1ccc2c(c1)cc(C1CC1)n2CCN1CCOCC1 [ACY-1035]
- Fold change /veh TMEM53 (11763286_at): 0.91
